Experimental data from patent publication US4238491A (priority 1977, dated 1980).
Read-outs that look alike come from different tables or passages of the source.

Legend:
serotonin in Brain = settings: in vivo; cited from earlier work
rats [1] = test: in vivo; assay type: in vivo, rat (SD (SPF))
Experimental: (§1) All the rats were observed daily and general symptoms noted. Weight was measured daily, average food-intake once every three days, and average water-intake once every two days.

in vivo = assay type: in vivo, rat (SD (SPF)); settings: rat, in vivo; oral sub-acute, rats; read-out: ineffective dose
Experimental: as §1

rats [2] = test system: rats
Text: Rats were sacrificed under anesthesia with ether. After observation of gross appearance of all the organs, extraction and weighing were made on spleen, lung, liver, adrenal, heart, thymus, kidney, testicles, hypophysis and thyroid. In addition to the above organs, femoral bone marrow, lymph node, stomach, intestine, pancreas, urinary bladder, prostate and central nervous system were removed and fixed in 10% formaline solution.

rats [3] = test system: rats; remark: listed apart in the source
Experimental: The rate were bred in individual cages under the following conditions: temperature, 23°±2° C.; relative humidity, 55±5%; free taking of solid food (CE-2, CLEA Japan, Inc.) and tap water.
Volume of the medicine solution for one administration was dicided to be 1 ml per 100 g of weight, and the dose was administered once a day, 6 times a week over 5 weeks. The control group received the same volume of 0.2% carboxymethyl cellulose solution.

[4] = test system: spontaneous motor activity; test: Effect on spontaneous motor activity; assay type: in vivo, mouse (dd-strain); settings: 25 mg/kg oral
Experimental: 25 mg/kg of MR were administered to the mice. After 15 minutes of letting them alone, spontaneous motor activity over 6 hours was measured hourly with an "Animex" made by AB Farad.

[5] = Excretion into bile after venous injection; assay type: in vivo; settings: rabbit, iv, within 6 hours, of amount administered
Experimental: From the Figure it is recognized that an amount as small as 0.3 to 0.5% of the administered MR is discharged into bile within 6 hours after administration.

Which results are given for `COC(=O)[C@H]1[C@H]2C[C@@H]3c4[nH]c5cc(OC)ccc5c4CCN3C[C@H]2C[C@@H](O)[C@@H]1OC` [MR, methylreserpate]?
serotonin in Brain (serotonin in Brain): no decrease of serotonin in Brain; side effects (rats [1]; only at the higher doses): blepharoptosis, leukopenia, increase of urine volume, atrophy of hematopoietic organs, cortial hypertrophy of adrenal and degeneration of liver cells (in dead rats); food-intake (rats [1]; rat, in vivo): No difference; general symptoms (rats [1]; rat, in vivo): blepharoptosis, roughening of fur and dirtiness of public region; general symptoms, additional (rats [1]; rat, in vivo): reduction of body weight, bloody cojunctival discharge, and a decrease of limb-skin temperature; NOAEL (in vivo): 12.5 mg/kg; Absolute weight Brain (rats [2]; 25.0 mg/kg): 2.26 ± 0.04 g; Absolute weight Hypophysis (rats [2]; 25.0 mg/kg): 11.98 ± 0.44 mg; Absolute weight Kidney (rats [2]; 25.0 mg/kg): 1.20 ± 0.04 g; Absolute weight Liver (rats [2]; 25.0 mg/kg): 10.00 ± 0.47 g; Absolute weight Lung (rats [2]; 25.0 mg/kg): 2.35 ± 0.05 g; Absolute weight Spleen (rats [2]; 25.0 mg/kg): 0.71 ± 0.03 g; Absolute weight Thymus (rats [2]; 25.0 mg/kg): 0.54 ± 0.02 g; Absolute weight Thyroid (rats [2]; 25.0 mg/kg): 10.07 ± 0.55 mg; Absolute weight Salivary (rats [2]; 25.0 mg/kg, P<0.01): 0.26 ± 0.01 g; Absolute weight Brain (rats [2]; 50.0 mg/kg): 2.26 ± 0.03 g; Absolute weight Hypophysis (rats [2]; 50.0 mg/kg): 11.93 ± 0.48 mg; Absolute weight Kidney (rats [2]; 50.0 mg/kg): 1.19 ± 0.03 g; Absolute weight Liver (rats [2]; 50.0 mg/kg): 10.16 ± 0.33 g; Absolute weight Lung (rats [2]; 50.0 mg/kg): 2.26 ± 0.10 g; Absolute weight Spleen (rats [2]; 50.0 mg/kg): 0.73 ± 0.03 g; Absolute weight Thymus (rats [2]; 50.0 mg/kg): 0.58 ± 0.05 g; Absolute weight Thyroid (rats [2]; 50.0 mg/kg): 8.55 ± 0.50 mg; Absolute weight Salivary (rats [2]; 50.0 mg/kg, P<0.05): 0.26 ± 0.01 g; absolute weight of other organs (rats [2]; 100 mg/kg): decrease in weight of the other organs; Absolute weight Hypophysis (rats [2]; 100.0 mg/kg): 10.46 ± 0.17 mg; Absolute weight Spleen (rats [2]; 100.0 mg/kg): 0.56 ± 0.03 g; Absolute weight Thyroid (rats [2]; 100.0 mg/kg): 7.86 ± 0.38 mg; Absolute weight Kidney (rats [2]; 100.0 mg/kg, P<0.01): 0.89 ± 0.03 g; Absolute weight Salivary (rats [2]; 100.0 mg/kg, P<0.01): 0.21 ± 0.01 g; Absolute weight Thymus (rats [2]; 100.0 mg/kg, P<0.01): 0.39 ± 0.03 g; Absolute weight Brain (rats [2]; 100.0 mg/kg, P<0.05): 2.17 ± 0.04 g; Absolute weight Liver (rats [2]; 100.0 mg/kg, P<0.05): 7.55 ± 0.32 g; Absolute weight Lung (rats [2]; 100.0 mg/kg, P<0.05): 2.10 ± 0.06 g; absolute adrenal weight (rats [2]; 25 and 50 mg/kg groups): weight increase of adrenal; Absolute weight Brain (rats [2]; rat, in vivo): 2.28±0.03; Absolute weight Hypophysis (rats [2]; rat, in vivo): 10.60±0.41; Absolute weight Kidney (rats [2]; rat, in vivo): 1.17±0.05; Absolute weight Liver (rats [2]; rat, in vivo): 10.18±0.50; Absolute weight Lung (rats [2]; rat, in vivo): 1.32±0.12; Absolute weight Salivary (rats [2]; rat, in vivo): 0.27±0.01; Absolute weight Spleen (rats [2]; rat, in vivo): 0.69±0.03; Absolute weight Thymus (rats [2]; rat, in vivo): 0.63±0.04; Absolute weight Thyroid (rats [2]; rat, in vivo): 8.59±0.50; gross appearance of organs (rats [2]; rat, in vivo): no noteworthy change; Eosino. (rats [3]; 25.0 mg/kg, day 10): 1.5±0.3%; Lymph. (rats [3]; 25.0 mg/kg, day 10): 81.8±2.0%; Mono. (rats [3]; 25.0 mg/kg, day 10): 2.1±0.4%; Neutro. (rats [3]; 25.0 mg/kg, day 10): 14.6±1.6%; Platelet (rats [3]; 25.0 mg/kg, day 10): 853±32.6 ×10^3 /mm^3; Eosino. (rats [3]; 25.0 mg/kg, day 20): 1.8±0.4%; Lymph. (rats [3]; 25.0 mg/kg, day 20): 74.8±2.1%; Mono. (rats [3]; 25.0 mg/kg, day 20): 1.2±0.3%; Neutro. (rats [3]; 25.0 mg/kg, day 20): 22.8±2.2%; Eosino. (rats [3]; 25.0 mg/kg, day 30): 1.4±0.6%; Lymph. (rats [3]; 25.0 mg/kg, day 30): 78.0±2.0%; Mono. (rats [3]; 25.0 mg/kg, day 30): 1.5±0.5%; Neutro. (rats [3]; 25.0 mg/kg, day 30): 19.2±1.9%; Platelet (rats [3]; 25.0 mg/kg, day 30): 658±26.8 ×10^3 /mm^3; Eosino. (rats [3]; 50.0 mg/kg, day 10): 1.8±0.4%; Lymph. (rats [3]; 50.0 mg/kg, day 10): 82.3±1.1%; Mono. (rats [3]; 50.0 mg/kg, day 10): 2.4±0.3%; Neutro. (rats [3]; 50.0 mg/kg, day 10): 13.5±0.8%; Platelet (rats [3]; 50.0 mg/kg, day 10): 861±33.5 ×10^3 /mm^3; Eosino. (rats [3]; 50.0 mg/kg, day 20): 1.3±0.4%; Lymph. (rats [3]; 50.0 mg/kg, day 20): 75.0±2.3%; Mono. (rats [3]; 50.0 mg/kg, day 20): 1.6±0.3%; Neutro. (rats [3]; 50.0 mg/kg, day 20): 22.1±2.2%; Eosino. (rats [3]; 50.0 mg/kg, day 30): 2.6±0.5%; Lymph. (rats [3]; 50.0 mg/kg, day 30): 78.7±1.8%; Mono. (rats [3]; 50.0 mg/kg, day 30): 1.2±0.2%; Neutro. (rats [3]; 50.0 mg/kg, day 30): 17.5±1.8%; Platelet (rats [3]; 50.0 mg/kg, day 30): 656±36.7 ×10^3 /mm^3; Eosino. (rats [3]; 100.0 mg/kg, day 10): 2.3±0.5%; Lymph. (rats [3]; 100.0 mg/kg, day 10): 77.1±2.2%; Mono. (rats [3]; 100.0 mg/kg, day 10): 2.3±0.3%; Neutro. (rats [3]; 100.0 mg/kg, day 10): 18.3±2.3%; Platelet (rats [3]; 100.0 mg/kg, day 10): 782±31.2 ×10^3 /mm^3; Eosino. (rats [3]; 100.0 mg/kg, day 20): 1.2±0.3%; Lymph. (rats [3]; 100.0 mg/kg, day 20): 69.6±3.0%; Mono. (rats [3]; 100.0 mg/kg, day 20): 1.6±0.3%; Neutro. (rats [3]; 100.0 mg/kg, day 20): 27.6±2.9%; Eosino. (rats [3]; 100.0 mg/kg, day 30): 1.4±0.4%; Lymph. (rats [3]; 100.0 mg/kg, day 30): 75.2±1.6%; Mono. (rats [3]; 100.0 mg/kg, day 30): 1.5±0.3%; Neutro. (rats [3]; 100.0 mg/kg, day 30): 21.9±1.9%; Platelet (rats [3]; 100.0 mg/kg, day 30): 696±13.9 ×10^3 /mm^3; Eosino. (rats [3]; 200.0 mg/kg, day 10, 4 rats): 0.8±0.5%; Lymph. (rats [3]; 200.0 mg/kg, day 10, 4 rats): 36.3±12%; Mono. (rats [3]; 200.0 mg/kg, day 10, 4 rats): 1.3±0.5%; Neutro. (rats [3]; 200.0 mg/kg, day 10, 4 rats): 61.8±12%; Platelet (rats [3]; 200.0 mg/kg, day 10, 4 rats): 592±54.7 ×10^3 /mm^3; average suppressive effect among four groups ([4]; P=0.05): no significant difference; effect on spontaneous motor activity ([4]; from 3 hours after): tended to supress spontaneous motor activity; dose excreted at 6 h [5]: 0.3 to 0.5%
